Results on one compound are retold here after patent US20100179130A1, “USE OF PIPERINE AND DERIVATIVES THEREOF FOR THE THERAPY OF NEUROLOGICAL CONDITIONS” (SYNGIS Bioscience GmbH & Co. KG, priority 2007, published 2010).

The test system of data set [1] is SH-SY5Y neuronal cells. Kind of data set: In vitro viability assay, cells stably transfected with constitutive Renilla luciferase. The following applies: 1 μM, 5 h. An excerpt: The viability assay allows for further assessment of test compounds regarding their effect on cells such as neurons. […] Subsequently, the signal generated by the reporter construct serves as a readout for the viability of the cells in the presence of the test compound. The assay enables the evaluation of potential neurotoxic effects of the test compound itself.
The effect of a compound on the viability of neuronal cells can be assayed in vitro by measuring the survival of neuronal cells transfected with a reporter construct under a constitutive promoter. SH-SY5Y neuronal cells stably transfected with a Renilla luciferase construct under the SV40 promoter were seeded in 96-well plates at a density of 2.5×10^4 cells per well. Following overnight incubation the cells were stimulated with medium containing piperine or vehicle. Staurosporine (0.1 μM) served as positive control. The Renilla luciferase activity was measured 5 h later using a luminometer (Berthold Technologies, Mithras LB 940). Piperine was tested in a range from 0.1 nM to 100 μM final concentration.

Data set [2] relates to motoneural cell line NSC-34. Kind of data set: Anti-apoptosis assay on motoneural cell line, staurosporine induced apoptosis, Caspase-Glo 3/7. The class given is cell-based. As to conditions: compound 1 μM in the presence of staurosporine 0.1 μM. How it is done:
Instead of the SH-SY5Y cells used in Example 3 and 4, this analysis was performed with motoneural cell line NSC-34. […] Incubation with staurosporine (SP; 0.1 μM) alone served as positive control and incubation with vehicle served as negative control. The degree of apoptosis relative to the staurosporine control is shown in FIG. 4 (vehicle (sham): 6%; staurosporine (SP): 100%; piperine plus staurosporine: 70%; derivative B plus staurosporine: 55%; derivative E plus staurosporine: 75%; derivative G plus staurosporine: 76%; derivative K plus staurosporine: 83%; derivative S plus staurosporine: 77%; derivative U plus staurosporine: 71%).

The test system of the next data set is neural stem cells. Briefly: In vitro differentiation assay on adult neural stem cells (beta-III-tubulin promoter firefly/Renilla dual luciferase reporter). It counts as cell-based, rat. An excerpt: The neuroregenerative effect of the compounds according to the present invention can be assayed in vitro by measuring their stimulation of the differentiation of neural stem cells. Therefore, adult neural stem cells have to be isolated and subsequently cultivated in a suitable culture medium. After several passages in vitro the stem cells have to be co-transfected with a DNA construct coding for two discriminable reporter proteins one of them under the control of a constitutive promoter and the other under the control of a beta-III-tubulin promoter. The beta-III-tubulin promoter is induced during the process of neural stem cell differentiation; therefore the reporter protein under the control of this promoter serves as a marker for the stem cell differentiation in such an in vitro dual reporter assay (Schneider et al., J Clin Investigation 2005; 115:2083-2098). The person skilled in the art knows several suitable constitutive promoters such as the SV40-promoter, the TK-promoter, or the CMV-promoter. As discriminable reporter proteins for such a dual reporter assay one can use discriminable luciferases such as firefly luciferase and Renilla luciferase. The transfected cells have to be incubated with the test compound and with a positive and negative controls for normalization and background correction. As a positive control compound one can use retinoic acid (Guan et al., Cell Tissue Res. 2001; 305:171-176; Jacobs et al., Proc. Natl. Acad. Sci. USA 2006; 103:3902-3907), a suitable negative control is the sham treatment of the cells. The neroregenerative activity of the test compound is determined as the ratio of the signal of the beta-III-tubulin promoter controlled reporter versus the signal of the constitutively expressed reporter and is expressed as fold from the control. This assay is suitable to assess the neuroregenerative activity of piperine and derivatives thereof, but also can be used to screen for other potential neuroregenerative compounds. Preferably, such a screening can be used to test compounds which are already known to be suitable as a medicament in terms of its toxicology, bioavailability, solubility, stability etc.
Neural stem cells were isolated from the subventricular zone of 4 week-old male Wistar rats as described (Maurer et al, Proteome Sci. 2003; 1:4). Cells were cultivated in Neurobasal medium (Invitrogen) supplemented with B27 (Invitrogen), 2 mM L-glutamine, 100 units/ml penicillin, 100 units/ml streptomycin, 20 ng/ml […] (EGF), 20 ng/ml fibroblast growth factor-2 (FGF-2), and 2 μg/ml heparin. Once a week the neural stem cells were passaged and experiments were performed after 4 weeks in vitro. For DNA transfection, the cells were dissociated and plated on poly-L-ornithin/laminin-coated 96-well plates at a density of 50.000 cells/well. Cotransfection with the pGL3-p-βIII-tubulin vector (100 ng/well) and the pRL SV40 vector (100 ng/well) was carried out according to the FuGene6 Transfection protocol (Roche). The pRL SV40 vector (Promega) served as an internal control vector.
To amplify the class III β-tubulin gene promoter (fragment −450-+54), rat genomic DNA was used as a template for PCR (Dennis et al., Gene 2002; 294:269-277). The amplified fragment was inserted into the Mlu I/Xho I site of the pGL3-Basic firefly luciferase reporter vector (Promega) to generate the pGL3-p-βIII-tubulin experimental vector.
After overnight incubation, the plate was decanted and given in 8-fold replicates fresh medium containing piperine (Sigma) or vehicle. As a positive control for in vitro differentiation, stem cells were treated by adding 1 μM retinoic acid (Sigma) to the medium missing the mitogens.
After 48 hrs, the cells were harvested to prepare the cellular extracts for luciferase assay following the directions of the manufacturer (Promega). […]

Data set [3] has as its system SH-SY5Y neuronal cells. Briefly: In vitro anti-apoptosis assay, staurosporine induced apoptosis, Caspase-Glo 3/7. As to conditions: compound 1 μM in the presence of staurosporine 0.1 μM; SH-SY5Y. The class given is cell-based, human.

Turning to `O=C(/C=C/c1ccc(Cl)cc1)N1CCCCC1` [(2E)-3-(4-chlorophenyl)-1-piperidylprop-2-en-1-one], the “viability of neuronal cells” value in the data set on SH-SY5Y neuronal cells [1] was “did not show reduced viability”. In addition, the “degree of apoptosis relative to the staurosporine control” value in data set [2] is recorded as 71%; in the data set on SH-SY5Y neuronal cells [3], 60%. In the data set with neural stem cells (0.2 μM up to 25, 50 or 100 μM, compared with sham and 1 μM retinoic acid), the “differentiation of neural stem cells to neurons, dose dependence” value is listed as “significantly stimulates”. Moreover, the “Stimulation factor for differentiation of neural stem cells” value in the data set on neural stem cells (1 μM final compound concentration, in comparison to sham treatment) was determined as 4.4 x-fold.
